Assay results taken from paper PMC6271228, “Diethyl 2-(Phenylcarbamoyl)phenyl Phosphorothioates: Synthesis, Antimycobacterial Activity and Cholinesterase Inhibition” (Molecules, 2014).
Values after ≈ are worked out from the molar mass of the structure shown. Read-outs that look alike come from different tables or passages of the source.

Experiments:
AChE from electric eel = target: T1, AChE from electric eel (Electrophorus electricus, UniProt O42275); assay: AChE inhibition, modified Ellman's method; assay type: biochemical, Electrophorus electricus L.
T1 construct: Acetylcholinesterase was obtained from electric eel (Electrophorus electricus L.); from tissue; host or cells: electric eel (Electrophorus electricus L.)
Source text: (§1) The ability of the tested compounds to inhibit AChE from electric eel (Electrophorus electricus L.) and BChE from equine serum was screened in vitro using modified Ellman’s method for the evaluation of cholinesterase activity. […] […]. These two standards were chosen due to their different structures. […]. The choice of these drugs with different mechanism of action can provide relevant results. All tested compounds expressed a good inhibitory activity with IC50s in low micromolar values.
(§2) The IC50 values were determined using the spectrophotometric Ellman’s method, which is a simple, rapid and direct method to determine the SH and -S-S- group content in proteins. This method is widely used for cholinesterase activity evaluation and screening of the efficiency of cholinesterase inhibitors. Cholinesterase activity is measured indirectly by quantifying the concentration of 5-thio-2-nitrobenzoic acid (TNB) ion formed in the reaction between the thiol reagent 5,5'-dithiobis-2-nitrobenzoic acid (DTNB) and thiocholine, a product of substrate hydrolysis by cholinesterase (i.e., acetylthiocholine, ATCh). All the tested compounds were dissolved in dimethyl sulfoxide (concentration 0.01 M) and then diluted in demineralised water (concentration 0.001 M and 0.0001 M). The Ellman’s method is slightly modified according to Zdrazilova et al.. Acetylcholinesterase was obtained from electric eel (Electrophorus electricus L.) and butyrylcholinesterase from equine serum.

M. kansasii My 235/80 = assay: microbe, parasite or virus in culture; assay type: cell-based, Mycobacterium kansasii; details: for MIC: Mycobacterium kansasii, 37 °C
[1] = system: M. kansasii 6509/96 (clinically isolated); assay: microbe, parasite or virus in culture; assay type: cell-based; details: Mycobacterium kansasii, 37 °C
[2] = system: Mycobacterium tuberculosis My 331/88 (H37Rv); assay: microbe, parasite or virus in culture; assay type: cell-based
BChE from equine serum = target: T2, BChE from equine serum (Equus caballus, UniProt P81908); assay: BChE inhibition, modified Ellman's method; assay type: biochemical
T2 construct: butyrylcholinesterase from equine serum; from tissue; host or cells: equine serum
Source text: as §1, §2

M. avium My 330/88 = assay: microbe, parasite or virus in culture; assay type: cell-based, Mycobacterium avium; details: for MIC: Mycobacterium avium, 37 °C; for MIC values against M. avium: all MIC values (14 and 21 d)
[3] = MY235/80, 168 h, 7 d, read-out: MIC M. kansasii 235/80 7 d
[4] = MY235/80, 336 h, 14 d, read-out: MIC M. kansasii 235/80 14 d
[5] = MY235/80, 504 h, 21 d, read-out: MIC M. kansasii 235/80 21 d
[6] = 168 h, 7 d, read-out: MIC M. kansasii 6509/96 7 d
[7] = 336 h, 14 d, read-out: MIC M. kansasii 6509/96 14 d
[8] = 504 h, 21 d, read-out: MIC M. kansasii 6509/96 21 d
[9] = 336 h, 14 d, 37 °C, read-out: MIC Mtb 331/88 (H37Rv) 14 d
[10] = 504 h, 21 d, 37 °C, read-out: MIC Mtb 331/88 (H37Rv) 21 d
[11] = MY330/88, 336 h, 14 d, read-out: MIC M. avium 330/88 14 d
[12] = MY330/88, 504 h, 21 d, read-out: MIC M. avium 330/88 21 d

T2 sequence (P81908 whole entry): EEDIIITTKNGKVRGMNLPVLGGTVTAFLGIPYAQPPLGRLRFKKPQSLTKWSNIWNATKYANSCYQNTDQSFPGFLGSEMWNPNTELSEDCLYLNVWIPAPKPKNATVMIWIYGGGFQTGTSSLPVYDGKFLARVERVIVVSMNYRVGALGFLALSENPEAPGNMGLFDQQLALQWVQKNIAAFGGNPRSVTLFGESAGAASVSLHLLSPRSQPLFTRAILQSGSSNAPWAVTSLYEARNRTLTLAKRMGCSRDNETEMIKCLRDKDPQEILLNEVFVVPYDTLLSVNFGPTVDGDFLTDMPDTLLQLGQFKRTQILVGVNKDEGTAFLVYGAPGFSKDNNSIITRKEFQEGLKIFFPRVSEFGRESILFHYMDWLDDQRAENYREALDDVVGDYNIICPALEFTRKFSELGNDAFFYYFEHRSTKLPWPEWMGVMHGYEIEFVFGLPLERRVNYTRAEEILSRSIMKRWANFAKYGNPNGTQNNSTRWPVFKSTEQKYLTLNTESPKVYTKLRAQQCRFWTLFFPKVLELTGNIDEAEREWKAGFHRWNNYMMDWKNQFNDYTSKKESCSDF
T1 sequence (O42275 24-633): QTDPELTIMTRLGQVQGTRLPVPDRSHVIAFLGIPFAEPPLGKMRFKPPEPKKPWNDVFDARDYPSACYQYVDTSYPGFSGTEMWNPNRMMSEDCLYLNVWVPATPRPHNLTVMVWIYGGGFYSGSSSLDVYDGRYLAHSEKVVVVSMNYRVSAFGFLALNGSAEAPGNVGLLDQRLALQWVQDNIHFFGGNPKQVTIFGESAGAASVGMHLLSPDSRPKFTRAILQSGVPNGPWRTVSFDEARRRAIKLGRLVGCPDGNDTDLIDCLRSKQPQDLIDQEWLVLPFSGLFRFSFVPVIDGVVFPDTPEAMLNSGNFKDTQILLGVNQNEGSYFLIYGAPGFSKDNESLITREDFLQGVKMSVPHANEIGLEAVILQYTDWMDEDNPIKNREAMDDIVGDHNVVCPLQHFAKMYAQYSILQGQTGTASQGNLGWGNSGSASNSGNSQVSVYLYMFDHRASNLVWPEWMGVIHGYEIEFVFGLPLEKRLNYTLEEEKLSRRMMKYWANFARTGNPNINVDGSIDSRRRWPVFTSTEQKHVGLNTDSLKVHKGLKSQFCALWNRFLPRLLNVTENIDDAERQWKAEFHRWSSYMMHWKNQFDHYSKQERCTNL

Row | SMILES | IC50 (AChE from electric eel) [µM] | MIC (M. kansasii My 235/80; [3]) [µM] | MIC (M. kansasii My 235/80; [4]) [µM] | MIC (M. kansasii My 235/80; [5]) [µM] | MIC [1, 6] [µM] | MIC [1, 7] [µM] | MIC [1, 8] [µM] | MIC [2, 9] [µM] | MIC [2, 10] [µM] | IC50 (BChE from equine serum) [µM] | MIC (M. avium My 330/88; [11]) [µM] | MIC (M. avium My 330/88; [12]) [µM] | MICs for M. kansasii 235/80 (M. kansasii My 235/80; all time points) [µM] | MIC values against M. avium (M. avium My 330/88) [µM] | MIC ([2]; read-out: MIC against Mtb) [µM]
1 | CCOP(=S)(OCC)Oc1ccc(Cl)cc1C(=O)Nc1ccc(F)cc1 [1p, O-{4-Chloro-2-[(4-fluorophenyl)carbamoyl]phenyl} O,O-diethyl phosphorothioate] | 13.6 ± 1.1 | 250 (≈ 104 µg/mL) | 500 (≈ 209 µg/mL) | > 500 | 125 (≈ 52.2 µg/mL) | 250 (≈ 104 µg/mL) | 500 (≈ 209 µg/mL) | 16 (≈ 6.69 µg/mL) | 16 (≈ 6.69 µg/mL) | 14.9 ± 0.8 | 500 (≈ 209 µg/mL) | 500 (≈ 209 µg/mL) | – | – | –
2 | CCOP(=S)(OCC)Oc1cc(Cl)ccc1C(=O)Nc1cccc(Br)c1 [1v, O-{2-[(3-Bromophenyl)carbamoyl]-5-chlorophenyl} O,O-diethyl phosphorothioate] | 9.98 ± 0.43 | 32 (≈ 15.3 µg/mL) | 125 (≈ 59.8 µg/mL) | 250 (≈ 120 µg/mL) | 32 (≈ 15.3 µg/mL) | 125 (≈ 59.8 µg/mL) | 250 (≈ 120 µg/mL) | 32 (≈ 15.3 µg/mL) | 32 (≈ 15.3 µg/mL) | 14.9 ± 1 | 500 (≈ 239 µg/mL) | 500 (≈ 239 µg/mL) | – | – | –
3 | CCOP(=S)(OCC)Oc1cc(Cl)ccc1C(=O)Nc1cccc(C(F)(F)F)c1 [1z, O-(5-Chloro-2-{[3-(trifluoromethyl)phenyl]carbamoyl}phenyl) O,O-diethyl phosphorothioate] | 11.4 ± 0.3 | 32 (≈ 15 µg/mL) | 125 (≈ 58.5 µg/mL) | 250 (≈ 117 µg/mL) | 62.5 (≈ 29.2 µg/mL) | 125 (≈ 58.5 µg/mL) | 125 (≈ 58.5 µg/mL) | 32 (≈ 15 µg/mL) | 62.5 (≈ 29.2 µg/mL) | 15 | 500 (≈ 234 µg/mL) | 500 (≈ 234 µg/mL) | ≤ 250 | – | –
4 | CCOP(=S)(OCC)Oc1ccc(Cl)cc1C(=O)Nc1ccc(Br)cc1 [1n, O-{2-[(4-Bromophenyl)carbamoyl]-4-chlorophenyl} O,O-diethyl phosphorothioate] | 9.32 ± 0.06 | 250 (≈ 120 µg/mL) | 500 (≈ 239 µg/mL) | 500 (≈ 239 µg/mL) | 250 (≈ 120 µg/mL) | 500 (≈ 239 µg/mL) | 500 (≈ 239 µg/mL) | 32 (≈ 15.3 µg/mL) | 32 (≈ 15.3 µg/mL) | 15.1 ± 0.1 | 500 (≈ 239 µg/mL) | 500 (≈ 239 µg/mL) | – | – | –
5 | CCOP(=S)(OCC)Oc1cc(Cl)ccc1C(=O)Nc1cccc(Cl)c1 [1s, O-{5-Chloro-2-[(3-chlorophenyl)carbamoyl]phenyl} O,O-diethyl phosphorothioate] | 9.79 ± 0.2 | 32 (≈ 13.9 µg/mL) | 125 (≈ 54.3 µg/mL) | 125 (≈ 54.3 µg/mL) | 32 (≈ 13.9 µg/mL) | 62.5 (≈ 27.1 µg/mL) | 125 (≈ 54.3 µg/mL) | 16 (≈ 6.95 µg/mL) | 32 (≈ 13.9 µg/mL) | 12.5 ± 0.1 | 125 (≈ 54.3 µg/mL) | 125 (≈ 54.3 µg/mL) | – | ≤ 250 | –
6 | CCOP(=S)(OCC)Oc1cc(Cl)ccc1C(=O)Nc1ccc(Cl)cc1 [1t, O-{5-Chloro-2-[(4-chlorophenyl)carbamoyl]phenyl} O,O-diethyl phosphorothioate] | 10.8 ± 0.3 | 32 (≈ 13.9 µg/mL) | 32 (≈ 13.9 µg/mL) | 32 (≈ 13.9 µg/mL) | 32 (≈ 13.9 µg/mL) | 62.5 (≈ 27.1 µg/mL) | 62.5 (≈ 27.1 µg/mL) | 32 (≈ 13.9 µg/mL) | 32 (≈ 13.9 µg/mL) | 13.8 ± 0.05 | 125 (≈ 54.3 µg/mL) | 125 (≈ 54.3 µg/mL) | – | ≤ 250 | –
7 | CCOP(=S)(OCC)Oc1ccc(Cl)cc1C(=O)Nc1cccc(C(F)(F)F)c1 [1q, O-(4-Chloro-2-{[3-(trifluoromethyl)phenyl]carbamoyl}phenyl) O,O-diethyl phosphorothioate] | 12.1 ± 0.2 | 125 (≈ 58.5 µg/mL) | 500 (≈ 234 µg/mL) | > 500 | 125 (≈ 58.5 µg/mL) | 500 (≈ 234 µg/mL) | 500 (≈ 234 µg/mL) | 8 (≈ 3.74 µg/mL) | 8 (≈ 3.74 µg/mL) | 19.9 ± 0.2 | 500 (≈ 234 µg/mL) | > 500 | – | – | 8 (≈ 3.74 µg/mL)
8 | CCOP(=S)(OCC)Oc1ccc(Br)cc1C(=O)Nc1ccc(F)cc1 [1g, O-{4-Bromo-2-[(4-fluorophenyl)carbamoyl]phenyl} O,O-diethyl phosphorothioate] | 12.4 ± 0.05 | 125 (≈ 57.8 µg/mL) | 500 (≈ 231 µg/mL) | > 500 | 125 (≈ 57.8 µg/mL) | 250 (≈ 116 µg/mL) | 250 (≈ 116 µg/mL) | 32 (≈ 14.8 µg/mL) | 32 (≈ 14.8 µg/mL) | 12.6 ± 0.3 | 500 (≈ 231 µg/mL) | > 500 | – | – | –
9 | CCOP(=S)(OCC)Oc1ccc(Cl)cc1C(=O)Nc1ccc(Cl)c(Cl)c1 [1l, O-{4-Chloro-2-[(3,4-dichlorophenyl)carbamoyl]phenyl} O,O-diethyl phosphorothioate] | 9.33 ± 0.11 | 125 (≈ 58.6 µg/mL) | 250 (≈ 117 µg/mL) | 500 (≈ 234 µg/mL) | 125 (≈ 58.6 µg/mL) | 250 (≈ 117 µg/mL) | 250 (≈ 117 µg/mL) | 8 (≈ 3.75 µg/mL) | 8 (≈ 3.75 µg/mL) | 17.4 ± 0.5 | > 500 | > 500 | – | – | 8 (≈ 3.75 µg/mL)
10 | CCOP(=S)(OCC)Oc1ccc(Cl)cc1C(=O)Nc1cccc(Br)c1 [1m, O-{2-[(3-Bromophenyl)carbamoyl]-4-chlorophenyl} O,O-diethyl phosphorothioate] | 14.1 ± 0.2 | 125 (≈ 59.8 µg/mL) | 500 (≈ 239 µg/mL) | > 500 | 125 (≈ 59.8 µg/mL) | 500 (≈ 239 µg/mL) | 500 (≈ 239 µg/mL) | 16 (≈ 7.66 µg/mL) | 16 (≈ 7.66 µg/mL) | 15.1 ± 1.3 | 500 (≈ 239 µg/mL) | 500 (≈ 239 µg/mL) | – | – | –
11 | CCOP(=S)(OCC)Oc1ccc(Cl)cc1C(=O)Nc1ccc(C(F)(F)F)cc1 [1r, O-(4-Chloro-2-{[4-(trifluoromethyl)phenyl]carbamoyl}phenyl) O,O-diethyl phosphorothioate] | 9.7 ± 0.18 | 62.5 (≈ 29.2 µg/mL) | 125 (≈ 58.5 µg/mL) | 250 (≈ 117 µg/mL) | 62.5 (≈ 29.2 µg/mL) | 125 (≈ 58.5 µg/mL) | 250 (≈ 117 µg/mL) | 8 (≈ 3.74 µg/mL) | 8 (≈ 3.74 µg/mL) | 15.6 ± 0.7 | 500 (≈ 234 µg/mL) | 500 (≈ 234 µg/mL) | – | – | 8 (≈ 3.74 µg/mL)
